We go through 23 compounds from US8003658B2, “Quinazoline derivatives for inhibiting cancer cell growth and method for the preparation thereof” (Hanmi Holdings Co., Ltd., priority 2004, dated 2011).

Where two headings read alike, the source gives them in different places.

The subject of one experiment is A431 (ATCC: CRL-1555). Briefly: Test of cancer cell growth inhibition (SRB), A431. As to conditions: read-out: IC50 A431.
The next experiment deals with SK-Br3 (ATCC: HTB-30). Briefly: Test of cancer cell growth inhibition (SRB), SK-Br3. As to conditions: read-out: IC50 SK-Br-3.
Experiment [1] addresses EGFR (EGFR type 1 kinase) (Homo sapiens, UniProt P00533). Briefly: Inhibition of EGFR enzyme (fluorescence polarization kinase assay).
Protocol: 10 μl of EGFR (EGFR type 1 kinase) was added to each well of a 96-well microplate.
Another experiment concerns SW-620 (ATCC: CCL-227). Nature of the experiment: Test of cancer cell growth inhibition (SRB), SW-620. The conditions noted are these: read-out: IC50 SW-620.
Where [2] appears, read: EGFR overexpressed A431, 72 hours, SRB.
The mark [3] stands for this setting: Erb-B2 overexpressed SK-Br3, 72 hours, SRB.
[4] abbreviates: read-out: IC50 EGFR, Poly (Glu, Tyr) 4:1 and ATP, 1 hour room temperature, FP readout.

For the compound `COCC(=O)NCCC(=O)Nc1ccc2ncnc(Nc3ccc(OCc4cccc(F)c4)c(Cl)c3)c2c1` [Example 20-2, N-{4-[3-chloro-4-(3-fluoro-benzyloxy)-phenylamino]-quinazolin-6-yl}-3-(2-methoxy-acetylamino)-propionamide], the IC50 in the experiment on A431 (ATCC: CRL-1555) (Homo sapiens, A-431, 72 h) came out at 948 nM; in the experiment on SK-Br3 (ATCC: HTB-30) (Homo sapiens, SK-BR-3, 72 h) it was 151 nM; in experiment [1], 30 nM.

For `CSCC(=O)NCCC(=O)Nc1ccc2ncnc(Nc3ccc(OCc4cccc(F)c4)c(Cl)c3)c2c1` [Example 117, N-{4-[3-chloro-4-(3-fluoro-benzyloxy)-phenylamino]-quinazolin-6-yl}-3-(2-methanesulfanyl-acetylamino)-propionamide], the IC50 in the experiment on A431 (ATCC: CRL-1555) (setting [2]) is 336 nM; in the experiment with SK-Br3 (ATCC: HTB-30) (setting [3]), 40 nM; with SW-620 (ATCC: CCL-227) (SW-620 not having overexpressed EGFR and Erb-B2, 72 hours, SRB) it was more than 10 µM.

`CCNC(=O)NCCC(=O)Nc1ccc2ncnc(Nc3ccc(OCc4cccc(F)c4)c(Cl)c3)c2c1` [Example 123, N-{4-[3-chloro-4-(3-fluoro-benzyloxy)-phenylamino]-quinazolin-6-yl}-3-(3-ethyl-ureido)-propionamide]: the IC50 in the experiment with A431 (ATCC: CRL-1555) (Homo sapiens, A-431, 72 h) was 240 nM; in the experiment on SK-Br3 (ATCC: HTB-30) (Homo sapiens, SK-BR-3, 72 h), 36 nM; in the experiment on SW-620 (ATCC: CCL-227) (Homo sapiens, SW-620, 72 h), more than 10 µM.

Take `C=CC(=O)NCCC(=O)Nc1ccc2ncnc(Nc3ccc(OCc4ccccn4)c(Cl)c3)c2c1` [Example 131, N-(2-{4-[3-chloro-4-(pyridin-2-ylmethoxy)-phenylamino]-quinazolin-6-ylcarbamoyl}-ethyl)-acrylamide]: the half-maximal inhibitory concentration (IC50) in the experiment on A431 (ATCC: CRL-1555) (Homo sapiens, A-431, 72 h) was 37 nM; in the experiment with SK-Br3 (ATCC: HTB-30) (Homo sapiens, SK-BR-3, 72 h), 3 nM; in experiment [1], 4 nM.

Consider `C=CC(=O)NCCC(=O)N(C)c1ccc2ncnc(Nc3ccc(OCc4cccc(F)c4)c(Cl)c3)c2c1` [Example 139-5, N-[2-({4-[3-chloro-4-(3-fluoro-benzyloxy)-phenylamino]-quinazolin-6-yl}-methyl-carbamoyl)-ethyl]-acrylamide], for which the IC50 amounted to 69 nM in the experiment on A431 (ATCC: CRL-1555) (Homo sapiens, A-431, 72 h); 47 nM in the experiment with SK-Br3 (ATCC: HTB-30) (Homo sapiens, SK-BR-3, 72 h); 5 nM in experiment [1].

As to `C=CC(=O)N(C)CCC(=O)Nc1ccc2ncnc(Nc3ccc(OCc4cccc(F)c4)c(Cl)c3)c2c1` [Example 142-2, N-(2-{4-[3-chloro-4-(3-fluoro-benzyloxy)-phenylamino]-quinazolin-6-ylcarbamoyl}-ethyl)-N-methyl-acrylamide], the IC50 in the experiment with A431 (ATCC: CRL-1555) (Homo sapiens, A-431, 72 h) is 19 nM; in the experiment with SK-Br3 (ATCC: HTB-30) (Homo sapiens, SK-BR-3, 72 h), 4 nM; in experiment [1] it was 2 nM.

On to `C=CC(=O)N(C)CCC(=O)Nc1ccc2ncnc(Nc3ccc(OCc4ccccn4)c(Cl)c3)c2c1` [Example 143, N-(2-{4-[3-chloro-4-(pyridin-2-ylmethoxy)-phenylamino]-quinazolin-6-ylcarbamoyl}-ethyl)-N-methyl-acrylamide], for which the IC50 in the experiment with A431 (ATCC: CRL-1555) (Homo sapiens, A-431, 72 h) was determined as 10 nM; in the experiment on SK-Br3 (ATCC: HTB-30) (Homo sapiens, SK-BR-3, 72 h), 2 nM; in experiment [1], 1 nM.

Consider `C=CC(=O)N1CCC[C@H]1C(=O)Nc1ccc2ncnc(Nc3ccc(OCc4ccccn4)c(Cl)c3)c2c1` [Example 145, (2S)-1-acryloyl-pyrrolidine-2-carboxylic acid {4-[3-chloro-4-(pyridin-2-ylmethoxy)-phenylamino]-quinazolin-6-yl}-amide], for which the IC50 worked out at 32 nM in the experiment on A431 (ATCC: CRL-1555) (setting [2]); 25 nM in the experiment with SK-Br3 (ATCC: HTB-30) (Homo sapiens, SK-BR-3, 72 h); 4 nM in experiment [1].

For the compound `CC#CC(=O)N1CCC[C@H]1C(=O)Nc1cc2c(Nc3ccc(OCc4ccccn4)c(Cl)c3)ncnc2cc1OC` [Example 146, (2S)-1-(1-oxo-butyn-2-yl)-pyrrolidine-2-carboxylic acid {4-[3-chloro-4-(pyridin-2-ylmethoxy)-phenylamino]-7-methoxy-quinazolin-6-yl}-amide], the figures for the IC50 (in the experiment on A431 (ATCC: CRL-1555) (setting [2]); in the experiment on SK-Br3 (ATCC: HTB-30) (setting [3]); in experiment [1] (setting [4])) were 32 nM, 40 nM and 4 nM, respectively.

As for `C=CC(=O)N1CCC[C@H]1C(=O)Nc1ccc2ncnc(Nc3ccc(OCc4cccc(C)n4)c(Cl)c3)c2c1` [Example 147, (2S)-1-acryloyl-pyrrolidine-2-carboxylic acid {4-[3-chloro-4-(6-methyl-pyridin-2-ylmethoxy)-phenylamino]-quinazolin-6-yl}-amide], the IC50 was 21 nM with A431 (ATCC: CRL-1555) (Homo sapiens, A-431, 72 h); 19 nM in the experiment on SK-Br3 (ATCC: HTB-30) (Homo sapiens, SK-BR-3, 72 h); 2 nM in experiment [1].

As for `C=CC(=O)N1CCC[C@H]1C(=O)Nc1cc2c(Nc3ccc(OCc4ccccn4)c(Cl)c3)ncnc2cc1OC` [Example 166, (2S)-1-acryloyl-pyrrolidine-2-carboxylic acid {4-[3-chloro-4-(pyridin-2-ylmethoxy)-phenylamino]-7-methoxy-quinazolin-6-yl}-amide], the 50% inhibitory concentration (IC50) in the experiment on A431 (ATCC: CRL-1555) (setting [2]) amounted to 27 nM; in the experiment with SK-Br3 (ATCC: HTB-30) (setting [3]) it was 3 nM; in experiment [1], 3 nM.

Turning to `C=CC(=O)NCCC(=O)Nc1cc2c(Nc3ccc(OCc4ccccn4)c(Cl)c3)ncnc2cc1OC` [Example 167, N-(2-{4-[3-chloro-4-(pyridin-2-ylmethoxy)-phenylamino]-7-methoxy-quinazolin-6-ylcarbamoyl}-ethyl)-acrylamide], the IC50 in the experiment with A431 (ATCC: CRL-1555) (Homo sapiens, A-431, 72 h) was 17 nM; with SK-Br3 (ATCC: HTB-30) (Homo sapiens, SK-BR-3, 72 h), 4 nM; in experiment [1] it was 2 nM.

With `C=CC(=O)NCCC(=O)Nc1cc2c(Nc3ccc(OCc4ccccn4)c(C)c3)ncnc2cc1F` [Example 178, N-(2-{7-fluoro-4-[3-methyl-4-(pyridin-2-ylmethoxy)-phenylamino]-quinazolin-6-ylcarbamoyl}-ethyl)-acrylamide], the IC50 in the experiment on A431 (ATCC: CRL-1555) (Homo sapiens, A-431, 72 h) turned out to be 50 nM; in the experiment with SK-Br3 (ATCC: HTB-30) (Homo sapiens, SK-BR-3, 72 h) it was 3 nM; in experiment [1] it was 4 nM.

Take `C=CC(=O)N[C@H](C)C(=O)Nc1cc2c(Nc3ccc(OCc4ccccn4)c(Cl)c3)ncnc2cc1OC` [Example 189, (1R)—N-(1-{4-[3-chloro-4-(pyridin-2-ylmethoxy)-phenylamino]-7-methoxy-quinazolin-6-ylcarbamoyl}-ethyl)-acrylamide]: the IC50 is 9 nM in the experiment on A431 (ATCC: CRL-1555) (Homo sapiens, A-431, 72 h); 2 nM in the experiment with SK-Br3 (ATCC: HTB-30) (Homo sapiens, SK-BR-3, 72 h); 1 nM in experiment [1].

Take `C=CC(=O)N[C@@H](C)C(=O)Nc1cc2c(Nc3ccc(OCc4ccccn4)c(Cl)c3)ncnc2cc1OC` [Example 190, (1S)—N-(1-{4-[3-chloro-4-(pyridin-2-ylmethoxy)-phenylamino]-7-methoxy-quinazolin-6-ylcarbamoyl}-ethyl)-acrylamide]: the IC50 in the experiment with A431 (ATCC: CRL-1555) (Homo sapiens, A-431, 72 h) was found to be 13 nM; in the experiment with SK-Br3 (ATCC: HTB-30) (Homo sapiens, SK-BR-3, 72 h), 6 nM; in experiment [1], 2 nM.

Take `C=CC(=O)N[C@@H](CC)C(=O)Nc1cc2c(Nc3ccc(OCc4ccccn4)c(Cl)c3)ncnc2cc1OC` [Example 205, (2S)-2-acryloylamino-N-{4-[3-chloro-4-(pyridin-2-ylmethoxy)-phenylamino]-7-methoxy-quinazolin-6-yl}-butyramide]: the IC50 in the experiment with A431 (ATCC: CRL-1555) (Homo sapiens, A-431, 72 h) was 17 nM; with SK-Br3 (ATCC: HTB-30) (Homo sapiens, SK-BR-3, 72 h) it was 19 nM; in experiment [1], 2 nM.

In the case of `C=CC(=O)N[C@H](C)C(=O)Nc1cc2c(Nc3ccc(OCc4ccccn4)c(Cl)c3)ncnc2cc1OCCOC` [Example 208, (1R)—N-(1-{4-[3-chloro-4-(pyridin-2-ylmethoxy)-phenylamino]-7-(2-methoxy-ethoxy)-quinazolin-6-ylcarbamoyl}-ethyl)-acrylamide], the IC50 was 11 nM with A431 (ATCC: CRL-1555) (Homo sapiens, A-431, 72 h); 3 nM in the experiment on SK-Br3 (ATCC: HTB-30) (Homo sapiens, SK-BR-3, 72 h); 2 nM in experiment [1].

In the case of `C=CC(=O)NCC(=O)Nc1cc2c(Nc3ccc(OCc4cccc(F)c4)c(Cl)c3)ncnc2cc1OC` [Example 211, N-({4-[3-chloro-4-(3-fluoro-benzyloxy)-phenylamino]-7-methoxy-quinazolin-6-ylcarbamoyl}-methyl)-acrylamide], the IC50 is 16 nM with A431 (ATCC: CRL-1555) (Homo sapiens, A-431, 72 h); 6 nM in the experiment on SK-Br3 (ATCC: HTB-30) (Homo sapiens, SK-BR-3, 72 h); 2 nM in experiment [1].

Take `C=CC(=O)NCC(=O)Nc1cc2c(Nc3ccc(OCc4cccc(F)c4)c(Cl)c3)ncnc2cc1OCCOC` [Example 217, N-({4-[3-chloro-4-(3-fluoro-benzyloxy)-phenylamino]-7-(2-methoxyethoxy)-quinazolin-6-ylcarbamoyl}-methyl)-acrylamide]: the IC50 in the experiment on A431 (ATCC: CRL-1555) (Homo sapiens, A-431, 72 h) turned out to be 14 nM; with SK-Br3 (ATCC: HTB-30) (Homo sapiens, SK-BR-3, 72 h), 3 nM; in experiment [1] it was 2 nM.

`C=CC(=O)NCC(=O)Nc1cc2c(Nc3ccc(OCc4ccccn4)c(Cl)c3)ncnc2cc1OCCOC` [Example 218, N-({4-[3-chloro-4-(pyridin-2-ylmethoxy)-phenylamino]-7-(2-methoxyethoxy)-quinazolin-6-ylcarbamoyl}-methyl)-acrylamide]: the IC50 is 16 nM in the experiment on A431 (ATCC: CRL-1555) (Homo sapiens, A-431, 72 h); 4 nM with SK-Br3 (ATCC: HTB-30) (Homo sapiens, SK-BR-3, 72 h); 2 nM in experiment [1].

Regarding `C=CC(=O)N[C@@H](C)C(=O)Nc1cc2c(Nc3ccc(OCc4ccccn4)c(Cl)c3)ncnc2cc1OCCCN1CCOCC1` [Example 219, (1S)—N-(1-{4-[3-chloro-4-(pyridin-2-ylmethoxy)-phenylamino]-7-(3-morpholin-4-yl-propoxy)-quinazolin-6-ylcarbamoyl}-ethyl)-acrylamide], the IC50 in the experiment with A431 (ATCC: CRL-1555) (Homo sapiens, A-431, 72 h) came to 17 nM; in the experiment on SK-Br3 (ATCC: HTB-30) (Homo sapiens, SK-BR-3, 72 h), 7 nM; in experiment [1], 2 nM.

Take `C#Cc1cccc(Nc2ncnc3cc(OCCOC)c(OCCOC)cc23)c1` [Tarceva, reference compound]: the IC50 in the experiment on A431 (ATCC: CRL-1555) (Homo sapiens, A-431, 72 h) was 59 nM; in the experiment on SK-Br3 (ATCC: HTB-30) (Homo sapiens, SK-BR-3, 72 h), 891 nM; in the experiment on SW-620 (ATCC: CCL-227) (Homo sapiens, SW-620, 72 h) it was more than 10 µM.

Take “(1S)—N-(1-{4-[3-chloro-4-(pyridin-2-ylmethoxy)-phenylamino]-7-methoxy-quinazolin-6-ylcarbamoyl}-ethyl)-acrylamide [Example 216]”: the half-maximal inhibitory concentration (IC50) in the experiment with A431 (ATCC: CRL-1555) (setting [2]) was determined as 13 nM; with SK-Br3 (ATCC: HTB-30) (setting [3]), 8 nM; in experiment [1] (setting [4]), 2 nM.
